Results on seven compounds are retold here after US8076487B2, “Pyridone derivative and herbicide” (Kumiai Chemical Industry Co., Ltd., priority 2006, dated 2011).

Holding throughout (assay type): in vivo
Test [1] deals with green foxtail (Setaria viridis (L.) P. Beauv.). As to the kind of experiment: Test Example 2: herbicidal effect by soil application to upland field. To be noted: soil surface spray, upland field soil, 1,000 g active ingredient per hectare, 21st day after application. Summed up:
(§1)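 Seeds were sown in field soil, covered, and the soil surface sprayed with a water-diluted wettable powder at 1,000 g active ingredient per hectare in 1,000 L/ha. Plants grew in a greenhouse, and herbicidal effect was rated against a standard scale 21 days after application.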

Test [2] concerns barnyardgrass (Echinochloa crus-galli (L.) P. Beauv. var. crus-galli). The description is as above. Particulars: soil surface spray, upland field soil, 1,000 g active ingredient per hectare, 21st day after application. Summed up: as §1
For test [3], the system named is velvetleaf (Abutilon theophrasti medicus). The test is described as above. To be noted: soil surface spray, upland field soil, 1,000 g active ingredient per hectare, 21st day after application. In outline: as §1
In test [4] the test system is slender amaranth (Amaranthus viridis L.). The description is as above. Particulars: soil surface spray, upland field soil, 1,000 g active ingredient per hectare, 21st day after application. Summed up: as §1
In test [5] the test system is heartshape false pickerelweed (Monochoria vaginalis (Burm.f.) C.Presl). Kind of test: Test Example 1: herbicidal effect by soil application to paddy field. Particulars: paddy field soil application; active ingredient 1,000 g per 1 hectare; wettable powder added dropwise to water surface the day after sowing; examined on the 21st day after application. Summed up:
(§2)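 Under greenhouse conditions, seeds sown on puddled paddy soil in 100 cm2 pots under 3 cm of standing water received the test compound; injury was assessed with a standard scoring scheme three weeks (day 21) after treatment.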

Test [6] concerns Japanese bulrush (Scirpus juncoides Roxb.). Described as above. Particulars: paddy field soil application; active ingredient 1,000 g per 1 hectare; wettable powder added dropwise to water surface the day after sowing; examined on the 21st day after application. In outline: as §2
Test [7] has as its system early watergrass (Echinochloa oryzicola Vasing). Described as above. Particulars: paddy field soil application; active ingredient 1,000 g per 1 hectare; wettable powder added dropwise to water surface the day after sowing; examined on the 21st day after application. Summed up: as §2
The test system of test [8] is green foxtail (Setaria viridis (L.) P. Beauv.). Kind of test: Test Example 3: herbicidal effect by application to upland field (foliage treatment). Particulars: 14th day after application; for herbicidal effect, Green Foxtail: foliage treatment, 1,000 g active ingredient per 1 hectare, greenhouse. Summed up:
(§3)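 Dose 1,000 g active ingredient/ha, sprayed as diluted wettable powder over entire plants two weeks after sowing in field soil. Kept in greenhouse; herbicidal effect graded on a standard scale on day 14.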

Test [9] relates to barnyardgrass (Echinochloa crus-galli (L.) P. Beauv. var. crus-galli). Described as above. Particulars: 14th day after application; for herbicidal effect, Barnyardgrass: foliage treatment, 1,000 g active ingredient per 1 hectare, greenhouse. Summed up: as §3
For test [10], the system named is velvetleaf (Abutilon theophrasti medicus). The test is described as above. Particulars: 14th day after application; for herbicidal effect, Velvetleaf: foliage treatment, 1,000 g active ingredient per 1 hectare, greenhouse. In outline: as §3
Test [11] relates to slender amaranth (Amaranthus viridis L.). Described as above. To be noted: 14th day after application; for herbicidal effect, Slender Amaranth: foliage treatment, 1,000 g active ingredient per 1 hectare, greenhouse. Summed up:
as §3

Setting [12] is: foliage treatment, plants grown two weeks, 1,000 g active ingredient per hectare.

Take `Cn1ncc(C(=O)c2ccc(C(F)(F)F)n(C)c2=O)c1O` [IV-1, 4-[1,2-dihydro-1-methyl-2-oxo-6-(trifluoromethyl)pyridine-3-carbonyl]-5-hydroxy-1-methyl-1H-pyrazole]: the “herbicidal effect (index), Green Foxtail” value in [1] was 4 (70 to less than 90% of herbicidal effect and crop phytotoxicity). Also, the “herbicidal effect (index), Barnyardgrass” value in test [2] is 5 (90% or more of herbicidal effect and crop phytotoxicity). The “herbicidal effect (index), Velvetleaf” value in test [3] was 5 (90% or more of herbicidal effect and crop phytotoxicity). Moreover, in test [4], the “herbicidal effect (index), Slender Amaranth” value is 5 (90% or more of herbicidal effect and crop phytotoxicity). The “herbicidal effect, Monochoria vaginalis (Burm. f.) C. Presl” value (from here on “herbicidal effect, Monochoria vaginalis”) in test [5] is 5 (90% or more of herbicidal effect and crop phytotoxicity). For the same compound, in [6], the “herbicidal effect, Scirpus juncoides Roxb.” value is 5 (90% or more of herbicidal effect and crop phytotoxicity). In addition, in test [7], the “herbicidal effect, Echinochloa oryzicola Vasing” value is 5 (90% or more of herbicidal effect and crop phytotoxicity). Besides, in test [8], the “herbicidal effect, Green Foxtail” value is 4 (70 to less than 90% of herbicidal effect and crop phytotoxicity). Also, the “herbicidal effect, Barnyardgrass” value in [9] was 4 (70 to less than 90% of herbicidal effect and crop phytotoxicity). In addition, the “herbicidal effect, Velvetleaf” value in test [10] is 5 (90% or more of herbicidal effect and crop phytotoxicity). For the same compound, in test [11], the “herbicidal effect, Slender Amaranth” value was 5 (90% or more of herbicidal effect and crop phytotoxicity).
Turning to `CC(C)CNn1c(C(F)(F)F)ccc(C(=O)C2=C(O)CCCC2=O)c1=O` [I-162], in [1], the “herbicidal effect (index), Green Foxtail” value was 5 (90% or more of herbicidal effect and crop phytotoxicity). Moreover, in test [2], the “herbicidal effect (index), Barnyardgrass” value is 5 (90% or more of herbicidal effect and crop phytotoxicity). Also, in test [3], the “herbicidal effect (index), Velvetleaf” value is 5 (90% or more of herbicidal effect and crop phytotoxicity). Besides, the “herbicidal effect (index), Slender Amaranth” value in [4] was 4 (70 to less than 90% of herbicidal effect and crop phytotoxicity). Moreover, the “herbicidal effect, Monochoria vaginalis” value in test [5] was 5 (90% or more of herbicidal effect and crop phytotoxicity). Further, the “herbicidal effect, Scirpus juncoides Roxb.” value in test [6] is 5 (90% or more of herbicidal effect and crop phytotoxicity). In [7], the “herbicidal effect, Echinochloa oryzicola Vasing” value was 5 (90% or more of herbicidal effect and crop phytotoxicity). Also, the “herbicidal effect, Green Foxtail” value in test [8] was 5 (90% or more of herbicidal effect and crop phytotoxicity). Besides, the “herbicidal effect, Barnyardgrass” value in [9] was 5 (90% or more of herbicidal effect and crop phytotoxicity). The “herbicidal effect, Velvetleaf” value in test [10] is 5 (90% or more of herbicidal effect and crop phytotoxicity). Moreover, the “herbicidal effect, Slender Amaranth” value in test [11] is 5 (90% or more of herbicidal effect and crop phytotoxicity).
For the compound `O=C1CCCC(O)=C1C(=O)c1ccc(C(F)(F)F)n(-c2ccc(Cl)cc2)c1=O` [I-75], the “herbicidal effect (index), Green Foxtail” value is 5 (90% or more of herbicidal effect and crop phytotoxicity) in test [1]; 5 (90% or more of herbicidal effect and crop phytotoxicity) in test [8] (setting [12]). Also, the “herbicidal effect (index), Barnyardgrass” value was 5 (90% or more of herbicidal effect and crop phytotoxicity) in test [2]; 5 (90% or more of herbicidal effect and crop phytotoxicity) in test [9] (setting [12]). Also, the “herbicidal effect (index), Velvetleaf” value was 5 (90% or more of herbicidal effect and crop phytotoxicity) in [3]; 5 (90% or more of herbicidal effect and crop phytotoxicity) in test [10] (setting [12]). Also, the “herbicidal effect (index), Slender Amaranth” value is 5 (90% or more of herbicidal effect and crop phytotoxicity) in [4]; 5 (90% or more of herbicidal effect and crop phytotoxicity) in [11] (setting [12]). Also, in test [5], the “herbicidal effect, Monochoria vaginalis” value is 5 (90% or more of herbicidal effect and crop phytotoxicity). Also, the “herbicidal effect, Scirpus juncoides Roxb.” value in [6] was 5 (90% or more of herbicidal effect and crop phytotoxicity). In test [7], the “herbicidal effect, Echinochloa oryzicola Vasing” value is 5 (90% or more of herbicidal effect and crop phytotoxicity).
As for `O=C1CCCC(O)=C1C(=O)c1ccc(C(F)(F)F)n(-c2ccccn2)c1=O` [I-150], the “herbicidal effect (index), Green Foxtail” value in test [1] was 5 (90% or more of herbicidal effect and crop phytotoxicity). Moreover, the “herbicidal effect (index), Barnyardgrass” value in test [2] is 5 (90% or more of herbicidal effect and crop phytotoxicity). Besides, the “herbicidal effect (index), Velvetleaf” value in [3] was 5 (90% or more of herbicidal effect and crop phytotoxicity). Besides, in test [4], the “herbicidal effect (index), Slender Amaranth” value is 5 (90% or more of herbicidal effect and crop phytotoxicity). Also, in [5], the “herbicidal effect, Monochoria vaginalis” value was 5 (90% or more of herbicidal effect and crop phytotoxicity). In addition, the “herbicidal effect, Scirpus juncoides Roxb.” value in test [6] is 5 (90% or more of herbicidal effect and crop phytotoxicity). Further, the “herbicidal effect, Echinochloa oryzicola Vasing” value in test [7] is 5 (90% or more of herbicidal effect and crop phytotoxicity). In addition, the “herbicidal effect, Green Foxtail” value in [8] was 5 (90% or more of herbicidal effect and crop phytotoxicity). In addition, in test [9], the “herbicidal effect, Barnyardgrass” value is 5 (90% or more of herbicidal effect and crop phytotoxicity). Further, in [10], the “herbicidal effect, Velvetleaf” value was 5 (90% or more of herbicidal effect and crop phytotoxicity). In addition, the “herbicidal effect, Slender Amaranth” value in [11] is 5 (90% or more of herbicidal effect and crop phytotoxicity).
For `CCCCn1c(C(F)(F)F)ccc(C(=O)c2cnn(C)c2O)c1=O` [IV-6], the “herbicidal effect (index), Green Foxtail” value in [1] was 5 (90% or more of herbicidal effect and crop phytotoxicity). Moreover, in test [2], the “herbicidal effect (index), Barnyardgrass” value was 5 (90% or more of herbicidal effect and crop phytotoxicity). Further, in test [3], the “herbicidal effect (index), Velvetleaf” value was 5 (90% or more of herbicidal effect and crop phytotoxicity). Further, the “herbicidal effect (index), Slender Amaranth” value in test [4] was 5 (90% or more of herbicidal effect and crop phytotoxicity). Further, the “herbicidal effect, Monochoria vaginalis” value in test [5] was 5 (90% or more of herbicidal effect and crop phytotoxicity). Besides, the “herbicidal effect, Scirpus juncoides Roxb.” value in [6] is 5 (90% or more of herbicidal effect and crop phytotoxicity). In test [7], the “herbicidal effect, Echinochloa oryzicola Vasing” value is 5 (90% or more of herbicidal effect and crop phytotoxicity). Further, the “herbicidal effect, Green Foxtail” value in test [8] was 5 (90% or more of herbicidal effect and crop phytotoxicity). Besides, the “herbicidal effect, Barnyardgrass” value in test [9] was 5 (90% or more of herbicidal effect and crop phytotoxicity). Besides, the “herbicidal effect, Velvetleaf” value in [10] was 5 (90% or more of herbicidal effect and crop phytotoxicity). Besides, in [11], the “herbicidal effect, Slender Amaranth” value is 5 (90% or more of herbicidal effect and crop phytotoxicity).
Consider `O=C(C1=C(O)C2CCC(C2)C1=O)c1ccc(C(F)(F)F)n(C2CC2)c1=O` (centres unmarked) [III-5], for which the “herbicidal effect (index), Green Foxtail” value in test [1] was 5 (90% or more of herbicidal effect and crop phytotoxicity). For the same compound, the “herbicidal effect (index), Barnyardgrass” value in test [2] is 5 (90% or more of herbicidal effect and crop phytotoxicity). Besides, in test [3], the “herbicidal effect (index), Velvetleaf” value is 5 (90% or more of herbicidal effect and crop phytotoxicity). Further, the “herbicidal effect (index), Slender Amaranth” value in [4] is 5 (90% or more of herbicidal effect and crop phytotoxicity). The “herbicidal effect, Monochoria vaginalis” value in [5] was 5 (90% or more of herbicidal effect and crop phytotoxicity). In [6], the “herbicidal effect, Scirpus juncoides Roxb.” value was 5 (90% or more of herbicidal effect and crop phytotoxicity). The “herbicidal effect, Echinochloa oryzicola Vasing” value in [7] is 5 (90% or more of herbicidal effect and crop phytotoxicity). The “herbicidal effect, Green Foxtail” value in test [8] was 5 (90% or more of herbicidal effect and crop phytotoxicity). The “herbicidal effect, Barnyardgrass” value in test [9] is 5 (90% or more of herbicidal effect and crop phytotoxicity). The “herbicidal effect, Velvetleaf” value in test [10] is 5 (90% or more of herbicidal effect and crop phytotoxicity). Also, in test [11], the “herbicidal effect, Slender Amaranth” value was 5 (90% or more of herbicidal effect and crop phytotoxicity).
With `Cn1ncc(C(=O)c2ccc(C(F)(F)F)n(C)c2=O)c1OC(=O)OCc1ccc(Cl)cc1` [IV-200], the “herbicidal effect (index), Green Foxtail” value in [1] is 4 (70 to less than 90% of herbicidal effect and crop phytotoxicity). The “herbicidal effect (index), Barnyardgrass” value in [2] was 5 (90% or more of herbicidal effect and crop phytotoxicity). In test [3], the “herbicidal effect (index), Velvetleaf” value was 5 (90% or more of herbicidal effect and crop phytotoxicity). For the same compound, the “herbicidal effect (index), Slender Amaranth” value in test [4] was 5 (90% or more of herbicidal effect and crop phytotoxicity). In [5], the “herbicidal effect, Monochoria vaginalis” value is 5 (90% or more of herbicidal effect and crop phytotoxicity). Also, the “herbicidal effect, Scirpus juncoides Roxb.” value in test [6] was 5 (90% or more of herbicidal effect and crop phytotoxicity). The “herbicidal effect, Echinochloa oryzicola Vasing” value in test [7] was 5 (90% or more of herbicidal effect and crop phytotoxicity). Besides, the “herbicidal effect, Green Foxtail” value in test [8] is 3 (50 to less than 70% of herbicidal effect and crop phytotoxicity). Besides, the “herbicidal effect, Barnyardgrass” value in test [9] is 4 (70 to less than 90% of herbicidal effect and crop phytotoxicity). For the same compound, the “herbicidal effect, Velvetleaf” value in test [10] was 5 (90% or more of herbicidal effect and crop phytotoxicity). For the same compound, the “herbicidal effect, Slender Amaranth” value in test [11] was 5 (90% or more of herbicidal effect and crop phytotoxicity).
